Measured values as given in patent US20030220267A1, “Borinic acid protease inhibitors” (priority 2001, published 2003).
Like-named read-outs stand apart in the source and are kept apart here.

Legend:
[1] = target: chymotrypsin (Bos taurus, UniProt P00766); conditions: pH 7.5; cited from earlier work
[2] = target: T1, HIV-1 protease (Human immunodeficiency virus type 1 group M subtype B, UniProt P04585); experiment: HIV-1 protease inhibition; assay type: biochemical, Human immunodeficiency virus 1; conditions: models such as those described by Pivazyan et al., Biochem. Pharma, 2000, 60, 927
T1 construct: Teach monomer is formed by 99 residues organized in β strands
Excerpt: The ability of a compound of the invention to act as an inhibitor of HIV-1 protease may be determined using pharmacological models which are well known to the art, such as tnose described by A. D. Pivazyan et al., Biochem. Pharma, 2000, 60, 927.

[3] = Excerpt: Furthermore, we attempted to separate the crude product on HPLC using a C18 reverse phase column and water/acetonitrile as the solvent. […] Using trifluoroacetic acid as part of the solvent mixture will acidify the media and might prevent decomposition.

| Molecule | Ki [1] [µM] | inhibition of HIV-1 protease [2] | stability under HPLC conditions ([3]; C18 reverse phase column, water/acetonitrile, gradient separation, crude product) | stability in buffer solution ([3]; acidic and neutral media) | stability in buffer solution ([3]; basic conditions) |
| --- | --- | --- | --- | --- | --- |
| CC(=O)N[C@@H](Cc1ccccc1)B(O)O | 2.1 |  |  |  |  |
| CC(=O)N[C@@H](Cc1ccccc1)B(O)CN1CCC[C@H]1C(N)=O [Compound I24, [(1R)-(1-Acetamido-2-phenylethyl)]-B-methylene-L-proline amide borinic acid] |  | inhibitors of HIV-1 protease | unstable | stable | quickly decomposes |
| [(1R)-1-(Ac-Thr-Leu-Asn)-2-phenylethyl]-B-methylene-L-proline amide borinic acid [Compound I28b] |  | inhibitors of HIV-1 protease |  |  |  |
| [( 1R)-1-(Ac-Ser-Leu-Asn)-2-phenylethyl]-B-methylene-L-proline amide borinic acid [Compound I28a] |  | inhibitors of HIV-1 protease |  |  |  |
